For eleven compounds, GI50 and TGI results are on record in PubChem BioAssay (NCI).

Some test systems named below: IGROV1 ovarian; A549 NSCLC; SN12C renal; MOLT-4 leukemia; EKVX NSCLC; TK-10 renal; HCT-15 colon; SF-295 CNS; NCI/ADR-RES ovarian; A498 renal.
What all share (test): inhibition of tumour cell growth, NCI panel, 48 h

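1) Cells in 96-well plates. 2) Compound, 48 h, 5 concentrations. 3) Linear interpolation between surrounding doses. 4) Unreached endpoint = highest concentration. GI50 marks 50% less growth. TGI is the concentration that stops growth completely.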

In the case of `CCOc1cc(/C=C/C(=O)CC(=O)/C=C/c2ccc(OC(=O)CNCCN(CC)CC)c(OCC)c2)ccc1OC(=O)CNCCN(CC)CC`, the GI50 in the experiment on IGROV1 ovarian was 1.97 µM; in the experiment with A549 NSCLC it was 3.81 µM; in the experiment on SN12C renal, 2 µM; in the experiment on MOLT-4 leukemia, 0.531 µM; with EKVX NSCLC it was 1.5 µM; in the experiment with TK-10 renal, 2.6 µM. Moreover, the GI50 was 2.06 µM in the experiment with HCT-15 colon, 6.26 µM with SF-295 CNS, 3.46 µM in the experiment with NCI/ADR-RES ovarian and 2.02 µM in the experiment on A498 renal. For the same compound, the TGI with IGROV1 ovarian was determined as 3.83 µM; in the experiment on A549 NSCLC, 15.9 µM; in the experiment on SN12C renal it was 6.25 µM; in the experiment with MOLT-4 leukemia it was 2.72 µM; in the experiment with EKVX NSCLC, 3.58 µM; with TK-10 renal, 6.38 µM. The TGI amounted to 4.66 µM in the experiment with HCT-15 colon, 23.4 µM with SF-295 CNS, 24.1 µM in the experiment on NCI/ADR-RES ovarian and 3.85 µM in the experiment with A498 renal.

In the case of `Cn1c(SCc2c[nH]c3ccccc23)nnc1-c1ccc(Cl)cc1Cl`, the TGI in the experiment on IGROV1 ovarian is 67.2 µM; with A549 NSCLC, 48.5 µM; in the experiment on SN12C renal it was 47.5 µM; in the experiment on MOLT-4 leukemia it was 27.5 µM; in the experiment with EKVX NSCLC it was 49.6 µM; in the experiment on TK-10 renal it was 47.2 µM. Further, the TGI in the experiment with HCT-15 colon was over 100 µM; in the experiment with SF-295 CNS it was 27.2 µM; in the experiment with NCI/ADR-RES ovarian, 27.3 µM; with A498 renal it was 86.3 µM.

Turning to `C=C1C(=O)O[C@@H]2[C@H]1C[C@H](I)[C@@]1(C)CC[C@H](O1)[C@](C)(I)CCCC(C)[C@@H]2O` (stereo not given in full), the TGI with IGROV1 ovarian is 5.68 µM; in the experiment on A549 NSCLC, 26.9 µM; with SN12C renal it was 17.7 µM; with MOLT-4 leukemia it was over 23.4 µM; in the experiment with EKVX NSCLC it was 22.9 µM; in the experiment with TK-10 renal it was 3.57 µM. The TGI in the experiment on HCT-15 colon is 4.57 µM; in the experiment on SF-295 CNS, 31.8 µM; in the experiment on NCI/ADR-RES ovarian it was 9.84 µM; with A498 renal it was 28.1 µM.

For `CO[C@]12C[C@@H](CNC(=O)c3cc(Br)c[nH]3)O[C@H]1NC(=O)N2`, the TGI with IGROV1 ovarian, in the experiment with A549 NSCLC, with SN12C renal, in the experiment with MOLT-4 leukemia, in the experiment with EKVX NSCLC and in the experiment on TK-10 renal was over 100 µM each time. For the same compound, the TGI in the experiment with HCT-15 colon, in the experiment with SF-295 CNS, in the experiment with NCI/ADR-RES ovarian and in the experiment with A498 renal was over 100 µM in each case.

With `Clc1cccc2[nH]ncc12`, the TGI with IGROV1 ovarian is over 100 µM; with A549 NSCLC it was over 100 µM; with SN12C renal, over 100 µM; with MOLT-4 leukemia, over 100 µM; in the experiment with EKVX NSCLC it was 95.4 µM; in the experiment on TK-10 renal it was over 100 µM. Moreover, the TGI in the experiment with HCT-15 colon, in the experiment with SF-295 CNS, in the experiment on NCI/ADR-RES ovarian and in the experiment with A498 renal was over 100 µM in each case.

Regarding `O=C(O)c1ccccc1CC(Cc1ccccc1)C(=O)O` (stereo not given), the TGI in the experiment with IGROV1 ovarian, in the experiment with A549 NSCLC, in the experiment on SN12C renal, with MOLT-4 leukemia, with EKVX NSCLC and with TK-10 renal was over 100 µM each time. Besides, the TGI in the experiment with HCT-15 colon, in the experiment on SF-295 CNS, with NCI/ADR-RES ovarian and in the experiment on A498 renal was over 100 µM each time.

`CC(=O)Oc1ccc(/C=C/C(=O)NCCOC(=O)/C=C/c2ccc(OC(C)=O)c(OC(C)=O)c2)cc1OC(C)=O`: the TGI in the experiment on IGROV1 ovarian is over 100 µM; in the experiment on A549 NSCLC it was over 100 µM; with SN12C renal it was 68.5 µM; with MOLT-4 leukemia it was over 100 µM; with EKVX NSCLC it was over 100 µM; in the experiment on TK-10 renal, over 100 µM. Moreover, the TGI with HCT-15 colon is over 100 µM; in the experiment with SF-295 CNS it was 76.7 µM; with NCI/ADR-RES ovarian, over 100 µM; in the experiment on A498 renal, over 100 µM.

On to `COC(=O)C1(Cc2ccccc2)Cc2c(C)ccc(C)c2C1=O` (stereo not given), for which the TGI is over 100 µM with IGROV1 ovarian; 36.4 µM with A549 NSCLC; over 100 µM in the experiment on SN12C renal; 57.5 µM in the experiment with MOLT-4 leukemia; over 100 µM in the experiment with EKVX NSCLC; over 100 µM in the experiment with TK-10 renal. In addition, the TGI with HCT-15 colon, in the experiment on SF-295 CNS, in the experiment on NCI/ADR-RES ovarian and in the experiment on A498 renal was over 100 µM each time.

In the case of `CCOC(=O)C1=C(C)N(CC(C)C)C2(O)C(OC)CC(=O)C3C(=O)N(c4ccccc4)C(=O)C132` (stereo not given), the TGI with IGROV1 ovarian is 40.2 µM; in the experiment with A549 NSCLC, over 100 µM; in the experiment on SN12C renal it was over 100 µM; in the experiment on MOLT-4 leukemia, 75.6 µM; in the experiment on EKVX NSCLC, over 100 µM; with TK-10 renal, over 100 µM. Besides, the TGI in the experiment on HCT-15 colon, in the experiment with SF-295 CNS, in the experiment on NCI/ADR-RES ovarian and in the experiment with A498 renal was over 100 µM in each case.

In the case of `Clc1ccc(Cn2cc(/C=N/n3cnnc3)c3ccccc32)cc1`, the TGI in the experiment on IGROV1 ovarian was over 100 µM; in the experiment with A549 NSCLC, over 100 µM; in the experiment on SN12C renal it was over 100 µM; in the experiment on MOLT-4 leukemia, over 100 µM; in the experiment on EKVX NSCLC, over 100 µM; with TK-10 renal it was 28.7 µM. Besides, the TGI in the experiment on HCT-15 colon is over 100 µM; in the experiment with SF-295 CNS it was over 100 µM; with NCI/ADR-RES ovarian, over 100 µM; in the experiment on A498 renal it was 4.34 µM.

On to `Brc1ccc(-c2nc(-c3ccc(Br)cc3)n(-c3ccccc3)n2)cc1`, for which the TGI in the experiment with IGROV1 ovarian, in the experiment with A549 NSCLC, in the experiment with SN12C renal, in the experiment on MOLT-4 leukemia, with EKVX NSCLC and in the experiment with TK-10 renal was over 100 µM throughout. In addition, the TGI with HCT-15 colon, with SF-295 CNS, in the experiment on NCI/ADR-RES ovarian and in the experiment on A498 renal was over 100 µM throughout.
